The structures appear in SMILES notation.

The record followed here is patent US20160021873A1, “STEM CELL PRESERVATION MEDIUM, STEM CELL PRESERVATION METHOD, AND STEM CELL PRESERVATION SYSTEM” (KYOKUTO PHARMACEUTICAL INDUSTRIAL CO., LTD., priority 2012, published 2016).

For the assay, the system named is human iPS cells. Description: survival rate on ROCK inhibitor (+) versus (-) cultivation after thawing. The format is cell-based. The settings on record: 10 μM Y-27632 for two days then three days without; rapid thawing with warm culture medium; ROCK inhibitor (-) cultivation about 30%. Here is the method: Cultivation and freezing in the stem cell preservation method were carried out by procedures similar to those of Embodiment 2. Regarding thawing, after a warm culture medium was used to conduct rapid thawing, difference of survival rate was measured depending on whether the ROCK inhibitor 10 μM Y-27632 was added or not. Where the inhibitor was added, in the presence of Y-27632, cultivation was performed for two days, thereafter, cultivation was performed additionally for three days in a culture medium free of Y-27632. On the other hand, where no inhibitor was added, cultivation was performed for five days in a normal culture medium. On both the cultivation, a survival rate was measured according to the method described in Embodiment 2.

In the case of `C[C@@H](N)[C@H]1CC[C@H](C(=O)Nc2ccncc2)CC1` [ROCK inhibitor, Y-27632], the survival rate entry was “about 120%”.
